Data as given in patent US20240016772A1, “Compositions And Methods Comprising D-Cysteine Or A D-Derivative Thereof” (UNIVERSITE DE GENEVE, priority 2020, published 2024).
“Also recorded” adds a separate entry of the source.

Key:
[1] = system: A549 cells; test: Cell death of A549 cells exposed to D-cysteine (passage p1, caspase 3 Western blotting, zVAD-fmk, CRISPR screen selection); type: cell-based, human
Description: (§1) A549 lung tumor cells (FIG. 5A) or BEAS-2B normal bronchial epithelial cells (FIG. 5B) were cultured in complete media (CM) in the absence or presence of 500 μM D-cysteine (D-Cys). Cell numbers were analyzed after 72 h and after splitting of cells (p1). Cell numbers are expressed as % of cells cultured in the absence of D-cysteine. **** P<0.0001.
(§2) We therefore decided to test whether the D-cysteine-mediated inhibition of OCR could affect cell growth in a regular normal medium complemented with fetal calf serum. Most culture media used for cell culture contain 300 μM L-cystine. […] Importantly, some cancer cell lines, including HeLa cells (FIG. 4A), the MPM cell line H2052/484 (FIG. 4B), and osteosarcoma cell line 143B (not shown), were insensitive both in 2D cultures or in colony formation assays. The decrease in numbers of cells seen after 72 h exposure to D-cysteine was due to decreased cell proliferation. […] Importantly, in contrast to the results with cancer cells, normal human bronchial epithelial BEAS-2B cells were resistant to D-cysteine exposure even at very high concentration (FIG. 5B).
For these experiments a pooled lentiviral CRISPR library (Addgene) targeting 19114 human genes was used to infect A549 cells, stably expressing the Cas9 nuclease. Cells were then cultured in the presence of 0.5 mM D-cysteine, a concentration sufficient to induce A549 cell death. After 2-3 weeks, the surviving clones were recovered and the sgRNAs were amplified by PCR and sequenced using next-generation sequencing (NGS) to identify the targeted genes (FIG. 6).

[2] = system: LuCa62 lung adenocarcinoma cells; test: Colony formation / spheroid formation assay, LuCa62; type: cell-based, human; settings: colony formation (0.1 mM, 2 weeks) or spheroids (0.1, 0.2 or 0.5 mM, 17 days)
Description: (§3) FIGS. 4A-4D: D-cysteine affects tumor cell viability. Colony formation assays in presence or absence 0.1 mM D-cysteine (D-Cys) for 2 weeks. FIG. 4A: Lung tumor cell lines+cervix cell line (HeLa). FIG. 4B: MPM cell lines. FIG. 4C: A549. FIG. 4D: LuCa62 spheroid formation in presence or absence of 0.1 mM, 0.2 mM or 0.5 mM D-cysteine for 17 days.
as §2

[3] = system: H1299 lung adenocarcinoma cells; test: Colony formation / proliferation, H1299; type: cell-based; settings: colony formation assays or spheroids
Description: as §3, §2

[4] = system: MDA-MB-231 triple-negative breast cancer cells; test: Colony formation / proliferation, MDA-MB-231; type: cell-based; settings: colony formation assays or spheroids
Description: as §2

[5] = system: A375 melanoma cells; test: Colony formation / proliferation, A375; type: cell-based; settings: colony formation assays or spheroids
Description: as §2

[6] = system: BEAS-2B normal bronchial epithelial cells; test: Proliferation of BEAS-2B normal cells; type: cell-based, human; settings: 500 μM; 72 h and after splitting (p1); even at very high concentration
Description: as §1, §2

[7] = system: A549 cells; test: Lipid peroxidation by Bodipy C11 staining; type: cell-based, human; settings: 500 μM, 72 h
Description: A549 cells were cultured for 72 h in complete medium (CM) with or without 500 μM D-cysteine (D-Cys) and different cellular characteristics were analyzed. FIG. 8A: Oxidized (GSSG) and total (GSH) glutathione levels. FIG. 8B: Mitochondrial ROS production by MitoSOX staining. FIG. 8C: Lipid peroxidation by Bodipy C11 staining. MFI=Mean of Fluorescence Intensity (Flow cytometry). * P<0.05.
We first tested whether D-cysteine could trigger ferroptosis. Ferroptosis is a type of death due to iron-mediated ROS production and lipid peroxidation. In most cases, it is triggered by decreased glutathione levels.

[8] = system: A549 cells; test: Proteome analysis (LC-MS/MS with TMT) of A549 cells exposed to D-cysteine; type: cell-based, human; settings: 500 μM, 72 h, FDR<0.01
Description: To understand how D-cysteine modifies protein expression, A549 cells were grown in the presence of D-cysteine for 3 days and total cellular proteins were compared to control cells grown in parallel in the presence of L-cysteine. For these experiments liquid chromatography-tandem mass spectrometry (LC-MS/MS) coupled with tandem mass tagging (TMT) was employed, a procedure which enables simultaneous protein identification and relative quantification of two different samples in the same proteomics experiment.
Proteome analysis of A549 cells cultured in the absence or presence of 500 μM D-cysteine for 72 h. […] FC=Fold change.

[9] = system: A549 lung cancer cells; test: Proliferation of A549 cells with D-cysteine and 3-MST inhibitor HMPSNE; type: cell-based, human; settings: D-cysteine 100 μM and/or HMPSNE
Description: A549 lung tumor cells (FIG. 10A) or MDA-MB-231 breast tumor cells (FIG. 10B) were cultured in complete media (CM) in the absence or presence of 100 μM D-cysteine (D-Cys), with (grey bars) or without (black bars) HMPSNE, a cell-membrane permeable inhibitor of 3-MST. Cell numbers were counted after 72 hours. * P<0.05, ** P<0.01, *** P<0.001, **** P<0.0001.
Furthermore, as mentioned above, it exerts toxic effects via iron chelation. Therefore, to survive D cysteine, cells need to increase its catabolism. There are two main pathways for cysteine catabolism: one is via its enzymatic breakdown to produce hydrogen sulfur and organic intermediates that will serve as carbon sources, and the second is via oxidative metabolism through cysteine dioxygenase 48. Inhibition of cysteine catabolism can be obtained with inhibitors of the key enzymes participating in this pathway. We have used a commercially available inhibitor of 3-MST, HMPSNE 49 to inhibit the enzyme in A549 lung cancer cells and in MDA-MB-231 breast cancer cells in the presence or absence of D cysteine.

[10] = rat; 500 mg/kg daily by gavage for one month; cited from earlier work

N[C@H](CS)C(=O)O [D-cysteine]
cell death after first passage of cells (p1) ([1]; A549, 500 μM D-cysteine, after 72 hours, following first passage): extensive cell death
concentration sufficient to induce A549 cell death ([1]; A549 cells stably expressing Cas9, culture 2-3 weeks): 0.5 mM
caspase 3 by Western blotting ([1]; D-cysteine-exposed cells, data not shown): No increase in caspase 3
antiproliferative effect, LuCa62 [2]: antiproliferative effect
antiproliferative effect, H1299 [3]: antiproliferative effect
antiproliferative effect, MDA-MB-231 [4]: antiproliferative effect
antiproliferative effect, A375 [5]: antiproliferative effect
proliferation of normal BEAS-2B cells [6]: resistant
lipid peroxidation [7]: induced; also recorded: induces an increase
FC (log2) CIAO1 protein [8]: −1.179 log2
FC (log2) COX4I1 protein [8]: −0.6951 log2
FC (log2) MT-CO3 protein [8]: −1.538 log2
FC (log2) MT-ND4 protein [8]: −1.86 log2
FC (log2) NDUFA4 protein [8]: −0.5939 log2
FC (log2) NDUFA5 protein [8]: −0.8033 log2
FC (log2) NDUFA7 protein [8]: −1.584 log2
FC (log2) NDUFA9 protein [8]: −0.5906 log2
FC (log2) NDUFA10 protein [8]: −0.8723 log2
FC (log2) NDUFA12 protein [8]: −0.6836 log2
FC (log2) NDUFS1 protein [8]: −1.133 log2
FC (log2) NDUFS4 protein [8]: −0.9309 log2
FC (log2) NDUFS7 protein [8]: −0.8355 log2
FC (log2) NDUFS8 protein [8]: −0.8273 log2
FC (log2) NDUFV1 protein [8]: −1.064 log2
FC (log2) NDUFV2 protein [8]: −0.7451 log2
FC (log2) SDHB protein [8]: −1.214 log2
cell proliferation (cell numbers after 72 hours), A549 [9]: did not significantly alter the growth
adverse effect on the animals [10]: no adverse effect
